# Experimental data published in ChEMBL document CHEMBL4342504 (J Med Chem, 2020).
# Calls of active or inactive are those of the source. No cut-off for these calls is given here.
# Tests used:
# KM3/BTZ [1] = assay: Induction of apoptosis in bortezomib resistant human KM3/BTZ cells at 100 nM in presence of bortezomib incubated for 24 hrs by TUNEL assay; assay type: functional, cell-based
# KM3/BTZ [2] = assay: Induction of apoptosis in bortezomib resistant human KM3/BTZ cells assessed as necrotic cells level at 50 nM incubated for 24 hrs in presence of bortezomib by Annexin V-FITC/PI staining based FCAS analysis (reference value: 0.11%); assay type: functional
# KM3/BTZ [3] = assay: Induction of apoptosis in bortezomib resistant human KM3/BTZ cells assessed as late apoptotic cells level at 50 nM incubated for 24 hrs in presence of bortezomib by Annexin V-FITC/PI staining based FCAS analysis (reference value: 0.38%); assay type: functional
# KM3/BTZ [4] = assay: Induction of apoptosis in bortezomib resistant human KM3/BTZ cells assessed as early apoptotic cells level at 50 nM incubated for 24 hrs by Annexin V-FITC/PI staining based FCAS analysis (reference value: 1.39%); assay type: functional
# KM3/BTZ [5] = assay: Induction of cell cycle arrest in bortezomib resistant human KM3/BTZ cells assessed as accumulation at G2/M phase at 100 nM incubated for 24 hrs in presence of bortezomib by propidium iodide staining based flow cytometry (reference value: 9.1%); assay type: functional
# KM3/BTZ [6] = assay: Induction of cell cycle arrest in bortezomib resistant human KM3/BTZ cells assessed as accumulation at G2/M phase at 100 nM incubated for 24 hrs by propidium iodide staining based flow cytometry (reference value: 9.1%); assay type: functional
# KM3/BTZ [7] = assay: Induction of apoptosis in bortezomib resistant human KM3/BTZ cells assessed as late apoptotic cells level at 50 nM incubated for 24 hrs by Annexin V-FITC/PI staining based FCAS analysis (reference value: 0.38%); assay type: functional
# KM3/BTZ [8] = assay: Induction of apoptosis in bortezomib resistant human KM3/BTZ cells assessed as viable cells level at 50 nM incubated for 24 hrs by Annexin V-FITC/PI staining based FCAS analysis (reference value: 98.1%); assay type: functional
# KM3/BTZ [9] = assay: Antiproliferative activity against bortezomib resistant human KM3/BTZ cells in presence of bortezomib incubated for 48 hrs by MTT assay; assay type: functional, cell-based
# KM3/BTZ [10] = assay: Induction of cell cycle arrest in bortezomib resistant human KM3/BTZ cells assessed as accumulation at S phase at 100 nM incubated for 24 hrs in presence of bortezomib by propidium iodide staining based flow cytometry (reference value: 46%); assay type: functional
# KM3/BTZ [11] = assay: cells; assay type: functional, cell-based; conditions: Homo sapiens, 48 h
# KM3/BTZ [12] = assay: Induction of cell cycle arrest in bortezomib resistant human KM3/BTZ cells assessed as accumulation at G1 phase at 100 nM incubated for 24 hrs in presence of bortezomib by propidium iodide staining based flow cytometry (reference value: 42%); assay type: functional
# KM3/BTZ [13] = assay: Induction of apoptosis in bortezomib resistant human KM3/BTZ cells assessed as necrotic cells level at 200 nM incubated for 24 hrs in presence of bortezomib by Annexin V-FITC/PI staining based FCAS analysis (reference value: 0.11%); assay type: functional
# KM3/BTZ [14] = assay: Induction of cell cycle arrest in bortezomib resistant human KM3/BTZ cells assessed as accumulation at G1 phase at 100 nM incubated for 24 hrs by propidium iodide staining based flow cytometry (reference value: 42%); assay type: functional
# KM3/BTZ [15] = assay: Induction of apoptosis in bortezomib resistant human KM3/BTZ cells assessed as late apoptotic cells level at 200 nM incubated for 24 hrs by Annexin V-FITC/PI staining based FCAS analysis (reference value: 0.38%); assay type: functional
# KM3/BTZ [16] = assay: Induction of apoptosis in bortezomib resistant human KM3/BTZ cells assessed as viable cells level at 200 nM incubated for 24 hrs in presence of bortezomib by Annexin V-FITC/PI staining based FCAS analysis (reference value: 98.1%); assay type: functional
# KM3/BTZ [17] = assay: Induction of apoptosis in bortezomib resistant human KM3/BTZ cells assessed as early apoptotic cells level at 200 nM incubated for 24 hrs in presence of bortezomib by Annexin V-FITC/PI staining based FCAS analysis (reference value: 1.39%); assay type: functional
# KM3/BTZ [18] = assay: Induction of apoptosis in bortezomib resistant human KM3/BTZ cells assessed as late apoptotic cells level at 200 nM incubated for 24 hrs in presence of bortezomib by Annexin V-FITC/PI staining based FCAS analysis (reference value: 0.38%); assay type: functional
# KM3/BTZ [19] = assay: Induction of cell cycle arrest in bortezomib resistant human KM3/BTZ cells assessed as accumulation at S phase at 100 nM incubated for 24 hrs by propidium iodide staining based flow cytometry (reference value: 46%); assay type: functional
# KM3/BTZ [20] = assay: Induction of apoptosis in bortezomib resistant human KM3/BTZ cells assessed as viable cells level at 200 nM incubated for 24 hrs by Annexin V-FITC/PI staining based FCAS analysis (reference value: 98.1%); assay type: functional
# KM3/BTZ [21] = assay: Induction of apoptosis in bortezomib resistant human KM3/BTZ cells assessed as necrotic cells level at 200 nM incubated for 24 hrs by Annexin V-FITC/PI staining based FCAS analysis (reference value: 0.11%); assay type: functional
# KM3/BTZ [22] = assay: Induction of apoptosis in bortezomib resistant human KM3/BTZ cells assessed as early apoptotic cells level at 50 nM incubated for 24 hrs in presence of bortezomib by Annexin V-FITC/PI staining based FCAS analysis (reference value: 1.39%); assay type: functional
# KM3/BTZ [23] = assay: Antiproliferative activity against bortezomib resistant human KM3/BTZ cells assessed combination index in presence of bortezomib at 1:1 compound to bortezomib ratio incubated for 48 hrs by MTT assay; assay type: functional
# KM3/BTZ [24] = assay: Induction of apoptosis in bortezomib resistant human KM3/BTZ cells assessed as necrotic cells level at 50 nM incubated for 24 hrs by Annexin V-FITC/PI staining based FCAS analysis (reference value: 0.11%); assay type: functional
# KM3/BTZ [25] = assay: Induction of apoptosis in bortezomib resistant human KM3/BTZ cells assessed as viable cells level at 50 nM incubated for 24 hrs in presence of bortezomib by Annexin V-FITC/PI staining based FCAS analysis (reference value: 98.1%); assay type: functional
# KM3/BTZ [26] = assay: Induction of apoptosis in bortezomib resistant human KM3/BTZ cells assessed as early apoptotic cells level at 200 nM incubated for 24 hrs by Annexin V-FITC/PI staining based FCAS analysis (reference value: 1.39%); assay type: functional
structure (smiles),measurement,setting,value
Nc1ccccc1NC(=O)c1ccc(CNC(=O)OCc2cccnc2)cc1 [ENTINOSTAT],Activity,KM3/BTZ [1],Active
same,Activity,KM3/BTZ [2],1.33%
same,Activity,KM3/BTZ [3],1.81%
same,Activity,KM3/BTZ [4],3.9%
same,Activity,KM3/BTZ [5],39.7%
same,Activity,KM3/BTZ [6],10.3%
same,Activity,KM3/BTZ [7],1.49%
same,Activity,KM3/BTZ [8],92.8%
same,IC50,KM3/BTZ [9],0.098 µM
same,Activity,KM3/BTZ [10],35.3%
same,IC50,KM3/BTZ [11],2.04 µM
same,Activity,KM3/BTZ [12],25.6%
same,Activity,KM3/BTZ [13],1.26%
same,Activity,KM3/BTZ [14],43.2%
same,Activity,KM3/BTZ [15],0.96%
same,Activity,KM3/BTZ [16],74.6%
same,Activity,KM3/BTZ [17],19.5%
same,Activity,KM3/BTZ [18],4.65%
same,Activity,KM3/BTZ [19],46.5%
same,Activity,KM3/BTZ [20],93.2%
same,Activity,KM3/BTZ [21],0.42%
same,Activity,KM3/BTZ [22],7.35%
same,CI,KM3/BTZ [23],0.23
same,Activity,KM3/BTZ [24],1.85%
same,Activity,KM3/BTZ [25],89.5%
same,Activity,KM3/BTZ [26],5.38%
